Experimental findings from ChEMBL document CHEMBL1649161, “Pharmacokinetics of EDP-420 after ascending single oral doses in healthy adult volunteers” (Antimicrob Agents Chemother, 2009) are described below.

Common to all, as to assay type: ADME, organism-based
The nature of data set [1]: Terminal half life in healthy human at 500 mg, po administered as single dose. The note with it: in vivo.
Data set [2] can be described thus: AUC (0 to infinity) in healthy human at 500 mg, po administered as single dose. Conditions: plasma. Also on record: dose 500 mg, route oral, time infinity.
Data set [3] in a line: AUC (0 to infinity) in healthy human at 400 mg, po administered as single dose. Also on record: dose 400 mg, time infinity, route oral. Conditions: plasma.
Data set [4] in a line: Half life in healthy human at 400 mg, po administered as single dose. Conditions: in vivo.
The nature of data set [5]: Cmax in healthy human at 400 mg, po administered as single dose. More on the design: dose 400 mg, route oral. Conditions: in vivo.
Data set [6] can be described thus: Cmax in healthy human at 500 mg, po administered as single dose. Also on record: dose 500 mg, route oral. Conditions: in vivo.
Data set [7] is described as follows: Terminal half life in healthy human at 400 mg, po administered as single dose. Conditions: in vivo.
A short description of data set [8]: Distribution half life in healthy human at 400 mg, po administered as single dose. Conditions: in vivo.

On to `CC[C@H]1OC(=O)[C@H](C)[C@@H](O[C@H]2C[C@@](C)(OC)[C@@H](O)[C@H](C)O2)[C@H](C)[C@@H](O[C@@H]2O[C@H](C)C[C@H](N(C)C)[C@H]2O)[C@](C)(O)C[C@@H](C)CN(C)[C@H](C)[C@@H](O)[C@]1(C)O` [AZITHROMYCIN], for which the half-life (commonly the time in which the quantity being followed falls by half) in data set [1] was 35 h. Further, in data set [2], the total exposure AUC(0-inf) (commonly total exposure, with the tail of the curve extrapolated) came to 3390 ng·h/mL.
In data set [3], `CC[C@H]1OC(=O)[C@H](C)[C@@H](O[C@H]2C[C@@](C)(OC)[C@@H](O)[C@H](C)O2)[C@H](C)[C@@H](O[C@@H]2O[C@H](C)C[C@H](N(C)C)[C@H]2O)[C@](C)(OC)C[C@@H](C)C(=O)[C@H](C)[C@@H](O)[C@]1(C)O` [CLARITHROMYCIN] yielded an AUC(0-inf) of 7520 ng·h/mL. Also, the half-life in data set [4] is 3.89 h. The Cmax (as a rule, the maximum level reached in the sampled fluid or tissue) in data set [5] stood at 780 ng/mL.
As to `CC[C@H]1OC(=O)[C@H](C)[C@@H](O[C@H]2C[C@@](C)(OC)[C@@H](O)[C@H](C)O2)[C@H](C)[C@@H](O[C@@H]2O[C@H](C)C[C@H](N(C)C)[C@H]2O)[C@](C)(O)C[C@@H](C)C(=O)[C@H](C)[C@@H](O)[C@]1(C)O` [ERYTHROMYCIN], the Cmax in data set [6] amounted to 2000 ng/mL. Also, the AUC(0-inf) in data set [2] worked out at 7700 ng·h/mL.
As for `CC[C@H]1OC(=O)[C@H](C)C(=O)[C@H](C)[C@@H](O[C@@H]2O[C@H](C)C[C@H](N(C)C)[C@H]2O)[C@](C)(OC)C[C@@H](C)C(=O)[C@H](C)[C@H]2N(CCCCn3cnc(-c4cccnc4)c3)C(=O)O[C@]12C` [TELITHROMYCIN], the AUC(0-inf) in data set [3] is 3090 ng·h/mL. Also, the half-life in data set [7] was 6.68 h; in data set [8] it was 2.13 h. Further, the Cmax in data set [5] turned out to be 800 ng/mL.
